Reference: the NIST ThermoML archive (doi:10.1016/j.jct.2010.04.027)
± gives the expanded uncertainty stated by the source.

Assay: molar enthalpy of vaporization or sublimation
Conditions: 298.15 K; Crystal; Static calorimetry

Structure (SMILES): c1ccc2c(c1)Cc1ccccc1O2 [10H-9-oxaanthracene]
- molar enthalpy: 22 ± 0.526 kcal/mol

Structure (SMILES): O=C1c2ccccc2Cc2ccccc21 [9(10H)-anthracenone]
- molar enthalpy: 25.5 ± 0.86 kcal/mol
